Marks after values point to notes of the source that are not given here.
Experiments:
PLIP [1] = biological target: T1, PLIP (Mus musculus, UniProt Q66GT5); test: Phosphatase activity of various PTPs (malachite green / radiolabeled protein substrates); assay type: biochemical, murine; conditions: for Phosphatase activity, PLIP: mole of phosphate released/min/mol of enzyme, pH 5.5, triplicate, this study
T1 construct: ligating a PCR product encoding full-length PLIP; made in house; host or cells: Escherichia coli BL21 (DE3) CodonPlus RIL
T1 sequence (Q66GT5 32-193): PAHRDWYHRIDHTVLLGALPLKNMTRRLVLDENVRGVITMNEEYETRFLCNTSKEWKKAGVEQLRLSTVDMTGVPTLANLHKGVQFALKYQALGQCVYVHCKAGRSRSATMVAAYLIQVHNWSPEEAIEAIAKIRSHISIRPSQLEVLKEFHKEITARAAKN
Procedure: Recombinant murine PLIP was expressed as a fusion protein with N-terminal GST and 6-His tags in Escherichia coli BL21 (DE3) CodonPlus RIL cells (Stratagene). The expression construct was assembled by ligating a PCR product encoding full-length PLIP into the 5′-EcoR1 and 3′-Xho1 sites of a modified pET41 vector (pSJ6), kindly provided by Zhaohui Xu (University of Michigan). […] Cultures were then chilled on ice for 20 min, supplied with fresh antibiotics, induced with IPTG to a final concentration of 0.4 mM, and allowed to grow overnight @ 25° C., as previously described (Taylor and Dixon, 2003). All subsequent steps were performed @ 4° C. The cultures were pelleted by spinning @ 6000 rpm for 10 min in a Sorvall GSA rotor, resuspended in 30 ml of buffer (20 mM Imidazole, 50 mM Tris pH 7.4, 300 mM NaCl) with Complete protease inhibitors (Roche), and lysed via French Press. Insoluble material was removed by centrifugation @ 50,000 rpm for 30 min. The fusion protein was purified from the soluble supernatant first over Ni^2+ agarose beads, and then by successive separation on Superdex 75 and 200 gel filtration columns (Amersham). The resulting protein was concentrated, flash frozen in liquid nitrogen, and stored @−80° C. in 25% glycerol, 2 mM EDTA, and 2 mM DTT until use.
(§1) Di-C8 phosphoinosites (Echelon) and Dioleoyl-phosphatidylserine (Sigma) were dried together in a Speed Vac and resuspended via sonication in 18 μl assay buffer (100 mM sodium acetate, 50 mM bis-Tris, 50 mM Tris (pH 5.5), 10 mM DTT) to final concentrations of 50 μM and 500 μM, respectively. After prewarming at 37° C. for 5 min, reactions were initiated by the addition of 20 to 2000 ng of GST-PLIP diluted in assay buffer containing 1.0 mg/ml gelatin. Reactions were quenched after 5-30 min by the addition of 20 μl 0.1 M N-ethylmaleimide, and spun at 18,000×g for 10 min to sediment the lipid aggregates. Twenty-five microliters of the supernatant was added to 50 μl of malachite green reagent and vortexed. Samples were allowed to sit for 40 minutes for color development before measuring absorbance at 620 nm. Inorganic phosphate release was quantitated by comparison to a standard curve of KH2PO4 in dH2O.
(§2) Assays using radiolabeled protein substrates or pNPP were carried in assay buffer containing 50 mM sodium acetate, 25 mM bis-Tris, 25 mM Tris, and 2 mM DTT at pH 5.5 (GST-PLIP), 6.0 (VHR), or 7.0 (TC-PTP), at 30° C. Radiolabeled proteins and pNPP were prepared and assayed as previously reported (Taylor et al., 1997).

PTEN = PTEN (Homo sapiens, UniProt P60484); test: Phosphatase activity of various PTPs; assay type: biochemical; conditions: for Phosphatase activity, PTEN: phosphoinositide substrates, this study
PTEN, sequence (P60484 whole entry, species assumed): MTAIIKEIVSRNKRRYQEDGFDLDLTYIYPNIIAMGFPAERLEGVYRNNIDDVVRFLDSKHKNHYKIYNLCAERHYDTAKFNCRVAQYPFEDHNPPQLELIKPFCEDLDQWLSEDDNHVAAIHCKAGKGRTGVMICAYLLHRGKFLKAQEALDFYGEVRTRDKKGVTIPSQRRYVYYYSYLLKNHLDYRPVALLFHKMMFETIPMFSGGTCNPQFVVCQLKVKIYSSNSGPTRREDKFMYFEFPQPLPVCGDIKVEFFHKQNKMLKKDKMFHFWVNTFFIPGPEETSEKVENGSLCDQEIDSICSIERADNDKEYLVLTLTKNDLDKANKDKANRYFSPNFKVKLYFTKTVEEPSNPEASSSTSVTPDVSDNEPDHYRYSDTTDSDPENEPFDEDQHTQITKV

MTM1 [2] = biological target: T2, MTM1 (Homo sapiens, UniProt Q13496); conditions: Ref. 32; cited from earlier work
T2 sequence (Q13496 1-603): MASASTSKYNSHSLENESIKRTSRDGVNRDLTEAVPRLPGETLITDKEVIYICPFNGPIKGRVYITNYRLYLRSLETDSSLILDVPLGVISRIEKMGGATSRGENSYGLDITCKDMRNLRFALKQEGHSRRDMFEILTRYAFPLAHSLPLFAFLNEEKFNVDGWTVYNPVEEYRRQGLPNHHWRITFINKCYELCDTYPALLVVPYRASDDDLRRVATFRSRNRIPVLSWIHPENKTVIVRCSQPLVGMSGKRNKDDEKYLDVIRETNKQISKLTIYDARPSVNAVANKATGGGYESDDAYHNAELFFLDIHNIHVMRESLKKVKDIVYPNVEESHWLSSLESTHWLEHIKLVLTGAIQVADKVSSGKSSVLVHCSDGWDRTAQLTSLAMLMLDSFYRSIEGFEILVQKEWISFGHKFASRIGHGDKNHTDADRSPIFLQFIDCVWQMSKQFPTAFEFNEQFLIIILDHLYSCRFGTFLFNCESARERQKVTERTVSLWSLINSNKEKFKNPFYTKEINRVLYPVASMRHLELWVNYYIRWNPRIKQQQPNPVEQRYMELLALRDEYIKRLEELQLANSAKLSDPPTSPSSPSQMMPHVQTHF

PLIP [3] = biological target: T1, PLIP; test: Activity of PLIP against water soluble PI(5)P derivatives of varying acyl chain length; assay type: biochemical, murine; conditions: water soluble substrate
PLIP [4] = biological target: T1, PLIP; test: Kinetic analysis of PLIP phosphatase activity (saturation kinetics); assay type: biochemical, murine
Procedure: as §2
To further explore PLIP's propensity to act as a protein phosphatase, a kinetic analysis of its activity toward the artificial phosphotyrosine analog, para-nitrophenyl phosphate (pNPP), alongside with di-C8 PI(5)P were performed (Taylor et al., 1997). FIG. 3 illustrates the kinetic analysis of PLIP phosphatase activity. Saturation kinetics for PLIP against pNPP (A) and water-soluble di-C8 PI(5)P (B) are shown. V (reaction velocity) is in units of pmol/(min μg).

TC-PTP = biological target: T3, TC-PTP (Homo sapiens, UniProt P17706); test: Phosphatase activity of various PTPs (malachite green / radiolabeled protein substrates); assay type: biochemical
T3 sequence (P17706 1-415): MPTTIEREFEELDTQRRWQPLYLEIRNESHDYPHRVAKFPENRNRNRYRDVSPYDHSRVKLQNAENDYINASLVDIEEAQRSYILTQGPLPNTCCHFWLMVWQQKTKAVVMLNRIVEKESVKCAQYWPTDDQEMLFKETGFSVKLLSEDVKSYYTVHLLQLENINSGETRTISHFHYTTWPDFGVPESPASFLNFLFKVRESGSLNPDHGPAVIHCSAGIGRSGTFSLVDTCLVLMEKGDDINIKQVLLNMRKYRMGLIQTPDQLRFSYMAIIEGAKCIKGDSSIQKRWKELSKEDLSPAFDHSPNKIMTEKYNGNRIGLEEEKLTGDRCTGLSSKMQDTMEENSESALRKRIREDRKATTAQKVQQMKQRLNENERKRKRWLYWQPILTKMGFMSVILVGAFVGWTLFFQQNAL
Procedure: as §1, §2
(§3) Due to the only recent emergence of PI(5)P as a known signaling molecule, few PTP's have been tested for activity against this substrate. To ensure that activity against PI(5)P is not a common feature of PTP's, membrane-bound di-C8 PI(5)P was assayed using a known tyrosine-specific PTP (TC-PTP) and a known dual-specific PTP (VHR) (Ishibashi et al., 1992; Zhao et al., 1992; Ruzzene et al., 1993; Zhou et al., 1994; Denu et al., 1995).

VHR = VHR (Homo sapiens, UniProt P51452); test: as above; assay type: biochemical
VHR, sequence (P51452 whole entry, species assumed): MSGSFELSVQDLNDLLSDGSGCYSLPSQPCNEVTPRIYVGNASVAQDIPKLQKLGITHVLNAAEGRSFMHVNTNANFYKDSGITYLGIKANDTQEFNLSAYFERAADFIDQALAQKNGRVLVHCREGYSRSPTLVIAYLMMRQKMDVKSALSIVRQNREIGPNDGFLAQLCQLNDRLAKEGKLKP
Procedure: as §1, §2, §3

MTM1 [5] = biological target: T2, MTM1; test: Phosphatase activity of various PTPs; assay type: biochemical
[6] = mole of phosphate released/min/mol of enzyme, triplicate, this study

## Nc1ncnc2c1ncn2[C@@H]1O[C@H](COP(=O)(O)OP(=O)(O)OP(=O)(O)O)[C@@H](O)[C@H]1O [ATP]
PLIP [1]
  ATPase activity of PTPMT1 in vitro: extremely poor

## CCCCCCCC(=O)OC[C@H](COP(=O)(O)O[C@@H]1[C@H](O)[C@H](OP(=O)(O)O)[C@@H](O)[C@H](O)[C@H]1O)OC(=O)CCCCCCC [PI (3) P]
PLIP [1]
  Phosphatase activity, PLIP: 1.3^b mol/(min mol)
PTEN
  Phosphatase activity, PTEN: 77.9^b mol/(min mol)
MTM1 [2]
  Phosphatase activity, MTM1: 4470^d mol/(min mol)

## CCCCCCCC(=O)OC[C@H](COP(=O)(O)OC1[C@H](O)[C@H](OP(=O)(O)O)C(OP(=O)(O)O)[C@H](OP(=O)(O)O)[C@H]1O)OC(=O)CCCCCCC (stereo partly drawn) [PI (3, 4, 5) P3]
PLIP [1]
  Phosphatase activity, PLIP: 3.1^b mol/(min mol)
PTEN; di-C8 PIs in lipid bilayer with phosphatidylserine carrier lipid
  PTEN fold preference over PI(3,5)P2: 1.8 fold
PTEN
  Phosphatase activity, PTEN: 346^b mol/(min mol)
MTM1 [2]
  Phosphatase activity, MTM1: 2.1^d mol/(min mol)

## CCCC(=O)OCC(COP(=O)(O)OC1C(O)C(O)C(O)C(OP(=O)(O)O)C1O)OC(=O)CCC (stereo not drawn) [di-C4 PI(5)P]
PLIP [3]
  Fold increase in PLIP activity versus inositol (1,5)P2: 10 fold

## O=[N+]([O-])c1ccc(OP(=O)(O)O)cc1 [pNPP, para-nitrophenyl phosphate]
PLIP [4]
  Km fold higher than Km for di-C8 PI(5)P: more than 150 fold
PLIP [4]; PLIP against pNPP
  Km: 5900 µM

## casein
PLIP [1]; radiolabeled protein substrates
  PLIP activity, fold lower than against PI(5)P: approximately 1000 fold

## phosphatidylinositol-5 phosphate [PI (5) P]
TC-PTP; membrane-bound di-C8 PI(5)P
  TC-PTP activity: barely detectable above background
TC-PTP; [6]
  Phosphatase activity, TC-PTP: ~0.0^b mol/(min mol)
VHR; membrane-bound di-C8 PI(5)P
  VHR activity: barely detectable above background
VHR; [6]
  Phosphatase activity, VHR: ~0.0^b mol/(min mol)
PLIP [1]; di-C8 PI's in lipid bilayer with phosphatidylserine carrier lipid
  PLIP activity, fold greater than against PI(3,5)P2: 44 fold
PLIP [1]
  Phosphatase activity, PLIP: 135^b mol/(min mol)
PTEN
  PTEN: fold less efficiency than toward preferred substrate: 17 fold
  Phosphatase activity, PTEN: 20.4^b mol/(min mol)
MTM1 [5]
  MTM1: fold less efficiency than toward preferred substrate: 200 fold
PLIP [4]; PLIP against water-soluble di-C8 PI(5)P
  Km: 37.5 µM
PLIP [3]
  Fold increase in PLIP activity versus di-C4 PI(5)P: 10 fold
MTM1 [2]
  Phosphatase activity, MTM1: 22.7^d mol/(min mol)

Source: patent US7749976B2, “Isolated PTPMT1 protein which mediates insulin production and uses thereof” (The Regents of the University of California, priority 2005, dated 2010)
